Patent publication US20210292417A1, “HISTAMINE DIHYDROCHLORIDE COMBINATIONS AND USES THEREOF” (Immune Pharmaceuticals LTD., priority 2016, published 2021)

Tests used:
[1] = target: H2R (Homo sapiens, UniProt P25021); details: thioether group replaced by an ether; cited from earlier work
[2] = system: NK cells and CD8+ T cells co-cultured with CD14+ CMML cells; assay: CMML cell-induced lymphocyte cell death, overnight co-culture; type: cell-based, human; details: DPI 3 μM; for CMML-induced lymphocyte apoptosis / cell death: NK cells and CD8+ T cells, HDC 100 μM, catalase 200U/ml, PJ34 0.5 μM
Experimental: (§1) Lymphocyte cell death. Isolated lymphocyte subsets were co-cultured overnight with primary leukemic monocytes from CMML patients with or without NOX2 inhibitors or other anti-oxidative compounds at 37° C. in 5% CO2. Lymphocyte cell death was assessed by flow cytometry after staining with a LIVE/DEAD® fixable dead cell stain (Life Technologies). In receptor expression assays, purified NK cells where co-cultured overnight with monocytes in the presence or absence of the PARP-1 inhibitor PJ34 ([…]). The following antibodies were used for receptor expression assessment: NKp46-PE (clone: 9E2) and DNAM-1-PE-Cy7 (clone: DX11) from Miltenyi Biotec. NKp80-APC (clone: 4A4.D10) and CD16-BV605 (clone: 3G8) from BD Pharmingen.
Subsets of CD8+ T cells were stained and sorted on a 3-laser […] II flow cytometer (BD Biosciences). The following antibodies were used to distinguish the T cell populations: CD3-Pacific Blue (clone: S4.1) from Life technologies. CD8-APC-H7 (clone: SK1), CD45RA-APC (clone: HI100), CD45RO-PE (clone: UCHL1) and CCR7-PE-Cy7 (clone: G043H7) all from BD Pharmingen. CD8+ T cell subsets were further defined as follows: naive T cells (TN) as CD45RA CCR7+, T central memory cells (TCM) as CD45ROCCR7+, T effector memory cells (TEM) as CD45ROCCR7^− and T effector cells (TEff) as CD45RACCR7^−.

[3] = system: EL-4 thymoma cell line; assay: EL-4 thymoma tumor growth in mice; type: in vivo, mouse; details: EL-4-bearing C57BL/6J mice; 1.5 mg histamine dihydrochloride i.p. three times per week; 240 μg each antibody i.p. days 3, 6 and 10
Experimental: The EL-4 thymoma cell line (provided by Dr. Ingo Schmitz, Otto-von-Guericke-University, Magdeburg, Germany) was cultured in DMEM medium (Sigma, Stockholm, Sweden) supplemented with 10% fetal calf serum, 100 U/ml penicillin, 100 μg/ml streptomycin and 2 mM L-glutamine, as described in […]. et al. The Journal of Immunology, volume 194, no. 10, pp. 5014-5021. C57BL/6J mice (6-8 weeks old, purchased from Charles River Laboratories, Sulzfeld, Germany) were inoculated subcutaneously with 1.75-2×10^5 EL-4 tumor cells and treated with saline (control) or 1.5 mg histamine dihydrochloride (purchased from Sigma-Aldrich, Stockholm, Sweden) diluted in saline, by intraperitoneal injections three times per week starting one day before inoculation of cells. Two-hundred forty μg of an antibody against the programmed cell death-1 receptor (anti-mouse PD1, clone RMP1-14, referred to as a-PD1) and 240 μg of an antibody against the programmed death-ligand 1 (anti-mouse PD-L1, clone 10F.9G2, referred to as α-PDL1) (both purchased from BioXcell, West Lebanon, N.H., USA, catalogue numbers BE0146 and BE0101, respectively) were administrated by intraperitoneal injections three, six and ten days after tumor inoculation. Tumors were measured manually every 2-3 days. Tumor size was calculated as length× width.

[4] = system: CD14+ CMML cells; assay: Extracellular ROS production by isoluminol-enhanced chemiluminescence; type: cell-based, human; details: FACS-sorted CD14+ CMML cells stimulated with fMLF; HDC 50 or 100 μM
Experimental: ROS production. The extracellular ROS production of primary CMML cells was measured by isoluminol-enhanced chemiluminescence as described. In brief, 2×10^5 cells were added to 96-well plates in the presence of isoluminol (10 μg/ml) and horseradish peroxidase (HRP; 4U/ml) and stimulated by the NOX2 inducer N-formyl-methionyl-leucyl-phenylalanine (fMLF; 0.1 μM). Light emission was recorded using a FLUOstar Omega platereader (BMG Labtech).

[5] = system: CD14+ CMML cells; assay: NK cell degranulation against primary CMML cells; type: cell-based, human; details: IL-2-stimulated NK cells; lintuzumab 1 μg/ml; HDC 100 μM added to lintuzumab
Experimental: Assays of NK cell degranulation and ADCC. NK cell degranulation and cytotoxicity against patient-derived, malignant monocytes were assessed in experiments using lintuzumab (Abbvie, Stockholm, Sweden), a humanized anti-CD33 antibody. NK cells from healthy donors were co-incubated with monocytes, labeled with CellTrace violet stain (Life Technologies), in the presence of anti-CD107a-PE-Cy7 antibody (BD Pharmingen) and anti-oxidative compounds for four hours at 37° C. and 5% CO2. Thereafter, the cells were stained with LIVE/DEAD® fixable dead cell stain (Life Technologies) and assessed for lysis of monocytes and NK cell degranulation by flow cytometry. For culture experiments, cytotoxicity assays and confocal microscopy, Iscoves' modified Dulbecco minimum essential medium (IDMEM) supplemented with 10% human AB+ serum was used.

[6] = system: NK cells; assay: NK cell receptor expression after exposure to PJ34; type: cell-based, human; details: PJ34 in the absence of ROS-producing cells
Experimental: as §1

H2R, sequence (P25021 whole entry, species assumed): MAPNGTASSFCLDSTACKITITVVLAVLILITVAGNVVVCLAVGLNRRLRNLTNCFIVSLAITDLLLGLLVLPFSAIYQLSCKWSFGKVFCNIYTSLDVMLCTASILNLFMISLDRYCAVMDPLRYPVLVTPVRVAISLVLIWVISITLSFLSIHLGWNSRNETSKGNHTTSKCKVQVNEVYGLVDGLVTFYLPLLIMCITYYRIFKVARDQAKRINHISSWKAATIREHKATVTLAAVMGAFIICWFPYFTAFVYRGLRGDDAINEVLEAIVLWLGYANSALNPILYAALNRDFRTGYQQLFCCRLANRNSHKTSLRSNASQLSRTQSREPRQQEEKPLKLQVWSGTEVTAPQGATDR

Compound	CMML-induced lymphocyte apoptosis / cell death [2]	NK cell degranulation response [5]	further results
CNC(=C[N+](=O)[O-])NCCOCc1ccc(CN(C)C)o1 [AH202399AA]			reduction of affinity at H2R relative to ranitidine [1]: > 50 fold
c1ccc2c(c1)[I+]c1ccccc1-2 [DPI, diphenylene iodonium chloride]	prevented		CMML cell-induced apoptosis of sorted CD8+ T cell subsets (TN, TCM, TEM, Teff) ([2]; ratio 1:1, overnight): efficiently rescued all T cell subsets
Cl.Cl.NCCc1c[nH]cn1 [HDC, histamine dihydrochloride]	prevented	further enhanced	tumor growth [3]: significantly reduced tumor growth rate; ROS production [4]: significantly suppressed
CN(C)CC(=O)Nc1ccc2[nH]c(=O)c3ccccc3c2c1 [PJ34]	rescued		NK cell receptor expression [6]: No down-regulation
catalase	prevented		
lintuzumab: a humanized anti-CD33 antibody		significantly augmented	
